Experimental data reported in paper PMC4774911, “Biochemical Screening of Five Protein Kinases from Plasmodium falciparum against 14,000 Cell-Active Compounds” (PLoS ONE, 2016).
Values joined by “and” are separate entries in the source; they are usually repeats but may differ in a detail not shown here. Identical values can stand only once.

Columns and labels:
Test in all cases: biochemical
Set-up in all cases: endogenous in cells; host or cells: K562 cell extract; species or system K562 (extract); replicate k of n = 2 (each experiment ID is one independent experiment; two experiment IDs per compound)
Conditions in all cases: read-out: KDapp
MARK3 = MARK3 (Homo sapiens, UniProt P27448)
JAK1 = JAK1 (Homo sapiens, UniProt P23458)
PIP4K2B = biological target: T1, PIP4K2B (Homo sapiens, UniProt P78356)
T1 sequence (P78356 1-416): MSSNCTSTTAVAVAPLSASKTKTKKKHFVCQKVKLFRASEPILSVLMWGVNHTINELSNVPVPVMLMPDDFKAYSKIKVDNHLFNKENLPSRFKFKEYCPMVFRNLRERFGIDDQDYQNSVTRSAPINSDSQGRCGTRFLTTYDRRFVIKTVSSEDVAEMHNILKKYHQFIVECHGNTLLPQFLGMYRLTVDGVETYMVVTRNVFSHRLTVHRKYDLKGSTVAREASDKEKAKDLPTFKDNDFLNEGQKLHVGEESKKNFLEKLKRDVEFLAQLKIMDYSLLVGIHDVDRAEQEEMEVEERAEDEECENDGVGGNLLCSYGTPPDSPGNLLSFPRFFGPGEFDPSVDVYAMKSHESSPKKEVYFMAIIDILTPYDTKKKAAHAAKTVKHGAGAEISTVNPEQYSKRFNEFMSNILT

PTK2B = PTK2B (Homo sapiens, UniProt Q14289)
ADCK1 = biological target: T2, ADCK1 (Homo sapiens, UniProt Q86TW2)
T2 sequence (Q86TW2 1-530): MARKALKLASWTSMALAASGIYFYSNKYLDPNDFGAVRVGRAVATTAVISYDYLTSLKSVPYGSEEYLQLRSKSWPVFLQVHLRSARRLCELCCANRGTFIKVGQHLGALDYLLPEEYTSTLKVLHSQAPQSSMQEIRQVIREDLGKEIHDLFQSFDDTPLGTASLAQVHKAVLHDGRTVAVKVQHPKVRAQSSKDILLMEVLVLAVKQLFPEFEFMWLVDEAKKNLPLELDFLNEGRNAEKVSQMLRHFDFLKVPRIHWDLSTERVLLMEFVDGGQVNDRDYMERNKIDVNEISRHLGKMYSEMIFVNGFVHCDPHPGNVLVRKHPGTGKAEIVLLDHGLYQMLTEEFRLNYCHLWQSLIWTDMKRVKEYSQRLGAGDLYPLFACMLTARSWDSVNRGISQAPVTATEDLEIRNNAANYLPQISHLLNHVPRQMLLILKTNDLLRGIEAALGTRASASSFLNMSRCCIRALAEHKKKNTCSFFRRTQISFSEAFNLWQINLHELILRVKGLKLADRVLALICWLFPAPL

PIP4K2A = biological target: T3, PIP4K2A (Homo sapiens, UniProt P48426)
T3 sequence (P48426 1-406): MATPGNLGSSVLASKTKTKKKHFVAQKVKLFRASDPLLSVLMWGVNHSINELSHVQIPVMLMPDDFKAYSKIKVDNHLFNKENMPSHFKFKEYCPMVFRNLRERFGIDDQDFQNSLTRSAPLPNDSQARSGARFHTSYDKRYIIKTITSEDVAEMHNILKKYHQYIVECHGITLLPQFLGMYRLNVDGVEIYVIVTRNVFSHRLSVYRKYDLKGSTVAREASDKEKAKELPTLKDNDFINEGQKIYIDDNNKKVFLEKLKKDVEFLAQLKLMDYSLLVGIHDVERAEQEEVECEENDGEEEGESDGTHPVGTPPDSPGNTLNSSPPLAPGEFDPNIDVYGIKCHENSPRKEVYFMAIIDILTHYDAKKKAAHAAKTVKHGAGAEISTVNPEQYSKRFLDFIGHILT

MAPK9 = MAPK9 (Homo sapiens, UniProt P45984)
PRKACB = PRKACB (Homo sapiens, UniProt P22694)
CSK = CSK (Homo sapiens, UniProt P41240)
Sequence of CSK (P41240 whole entry): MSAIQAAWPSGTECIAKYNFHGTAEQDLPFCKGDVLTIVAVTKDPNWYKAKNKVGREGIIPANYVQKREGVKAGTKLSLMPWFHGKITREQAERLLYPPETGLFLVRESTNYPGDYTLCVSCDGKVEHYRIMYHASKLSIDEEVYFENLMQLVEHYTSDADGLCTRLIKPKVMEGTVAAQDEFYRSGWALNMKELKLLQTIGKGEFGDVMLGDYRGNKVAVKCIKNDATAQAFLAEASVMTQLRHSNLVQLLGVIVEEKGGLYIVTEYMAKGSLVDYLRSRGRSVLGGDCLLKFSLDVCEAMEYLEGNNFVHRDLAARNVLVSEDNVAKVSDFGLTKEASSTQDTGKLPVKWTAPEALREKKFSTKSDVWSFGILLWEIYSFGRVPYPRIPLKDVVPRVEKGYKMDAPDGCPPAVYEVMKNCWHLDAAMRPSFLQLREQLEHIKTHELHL

Sequence of MARK3 (P27448 whole entry): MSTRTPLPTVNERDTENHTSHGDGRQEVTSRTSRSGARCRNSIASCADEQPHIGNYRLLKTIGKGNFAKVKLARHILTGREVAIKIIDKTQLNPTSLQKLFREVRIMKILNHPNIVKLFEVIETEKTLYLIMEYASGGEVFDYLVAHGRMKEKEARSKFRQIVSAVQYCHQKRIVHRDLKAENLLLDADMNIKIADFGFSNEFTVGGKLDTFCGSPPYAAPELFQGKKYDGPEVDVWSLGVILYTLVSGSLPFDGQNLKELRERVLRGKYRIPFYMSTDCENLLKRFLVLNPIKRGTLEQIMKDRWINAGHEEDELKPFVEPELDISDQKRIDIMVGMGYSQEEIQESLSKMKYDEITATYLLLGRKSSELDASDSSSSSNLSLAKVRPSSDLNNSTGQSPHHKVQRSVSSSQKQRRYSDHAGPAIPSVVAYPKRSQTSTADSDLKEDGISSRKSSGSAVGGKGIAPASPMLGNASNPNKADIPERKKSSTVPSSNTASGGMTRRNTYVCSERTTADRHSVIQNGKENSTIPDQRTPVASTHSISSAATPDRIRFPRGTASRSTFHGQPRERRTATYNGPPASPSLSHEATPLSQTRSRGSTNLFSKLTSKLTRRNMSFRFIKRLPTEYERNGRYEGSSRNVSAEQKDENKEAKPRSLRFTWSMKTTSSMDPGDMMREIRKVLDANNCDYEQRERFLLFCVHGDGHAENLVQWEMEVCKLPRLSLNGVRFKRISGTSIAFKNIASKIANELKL
Sequence of MAPK9 (P45984 whole entry): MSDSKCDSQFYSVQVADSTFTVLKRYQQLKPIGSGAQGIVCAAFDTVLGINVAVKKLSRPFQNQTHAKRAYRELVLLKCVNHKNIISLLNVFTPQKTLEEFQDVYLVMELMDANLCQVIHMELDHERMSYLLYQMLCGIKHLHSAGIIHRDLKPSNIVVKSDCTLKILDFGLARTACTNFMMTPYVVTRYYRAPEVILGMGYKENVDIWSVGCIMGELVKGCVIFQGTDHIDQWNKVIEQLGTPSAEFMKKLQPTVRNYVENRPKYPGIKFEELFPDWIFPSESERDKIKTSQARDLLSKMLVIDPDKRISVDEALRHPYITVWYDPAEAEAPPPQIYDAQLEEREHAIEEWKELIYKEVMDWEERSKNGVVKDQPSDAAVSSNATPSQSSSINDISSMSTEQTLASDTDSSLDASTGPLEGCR
Sequence of PTK2B (Q14289 whole entry): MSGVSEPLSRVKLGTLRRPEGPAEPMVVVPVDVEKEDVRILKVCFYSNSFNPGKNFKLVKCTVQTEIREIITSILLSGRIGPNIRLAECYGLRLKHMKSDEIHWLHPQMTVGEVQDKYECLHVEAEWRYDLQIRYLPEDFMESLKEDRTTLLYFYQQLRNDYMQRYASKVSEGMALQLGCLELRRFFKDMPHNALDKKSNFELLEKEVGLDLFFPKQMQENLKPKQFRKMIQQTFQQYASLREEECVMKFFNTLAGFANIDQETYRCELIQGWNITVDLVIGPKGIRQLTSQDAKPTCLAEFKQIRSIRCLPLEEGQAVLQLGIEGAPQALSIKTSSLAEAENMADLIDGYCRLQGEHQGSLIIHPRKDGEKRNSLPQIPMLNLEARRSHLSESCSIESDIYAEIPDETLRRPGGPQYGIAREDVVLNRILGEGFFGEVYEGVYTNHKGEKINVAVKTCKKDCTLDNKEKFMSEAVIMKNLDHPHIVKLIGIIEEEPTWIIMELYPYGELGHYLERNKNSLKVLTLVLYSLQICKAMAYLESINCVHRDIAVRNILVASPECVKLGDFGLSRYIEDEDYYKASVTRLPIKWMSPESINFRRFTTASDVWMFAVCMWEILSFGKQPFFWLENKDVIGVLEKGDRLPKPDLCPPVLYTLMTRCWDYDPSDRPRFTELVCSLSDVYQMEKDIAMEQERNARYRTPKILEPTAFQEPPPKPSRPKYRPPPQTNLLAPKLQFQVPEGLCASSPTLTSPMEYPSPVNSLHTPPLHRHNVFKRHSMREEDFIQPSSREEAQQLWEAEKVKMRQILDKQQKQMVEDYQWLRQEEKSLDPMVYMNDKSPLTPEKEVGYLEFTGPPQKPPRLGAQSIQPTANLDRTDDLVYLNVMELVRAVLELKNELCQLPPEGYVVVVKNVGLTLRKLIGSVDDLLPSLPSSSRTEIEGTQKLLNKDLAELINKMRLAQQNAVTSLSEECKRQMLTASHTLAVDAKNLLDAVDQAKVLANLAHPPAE
Sequence of JAK1 (P23458 whole entry): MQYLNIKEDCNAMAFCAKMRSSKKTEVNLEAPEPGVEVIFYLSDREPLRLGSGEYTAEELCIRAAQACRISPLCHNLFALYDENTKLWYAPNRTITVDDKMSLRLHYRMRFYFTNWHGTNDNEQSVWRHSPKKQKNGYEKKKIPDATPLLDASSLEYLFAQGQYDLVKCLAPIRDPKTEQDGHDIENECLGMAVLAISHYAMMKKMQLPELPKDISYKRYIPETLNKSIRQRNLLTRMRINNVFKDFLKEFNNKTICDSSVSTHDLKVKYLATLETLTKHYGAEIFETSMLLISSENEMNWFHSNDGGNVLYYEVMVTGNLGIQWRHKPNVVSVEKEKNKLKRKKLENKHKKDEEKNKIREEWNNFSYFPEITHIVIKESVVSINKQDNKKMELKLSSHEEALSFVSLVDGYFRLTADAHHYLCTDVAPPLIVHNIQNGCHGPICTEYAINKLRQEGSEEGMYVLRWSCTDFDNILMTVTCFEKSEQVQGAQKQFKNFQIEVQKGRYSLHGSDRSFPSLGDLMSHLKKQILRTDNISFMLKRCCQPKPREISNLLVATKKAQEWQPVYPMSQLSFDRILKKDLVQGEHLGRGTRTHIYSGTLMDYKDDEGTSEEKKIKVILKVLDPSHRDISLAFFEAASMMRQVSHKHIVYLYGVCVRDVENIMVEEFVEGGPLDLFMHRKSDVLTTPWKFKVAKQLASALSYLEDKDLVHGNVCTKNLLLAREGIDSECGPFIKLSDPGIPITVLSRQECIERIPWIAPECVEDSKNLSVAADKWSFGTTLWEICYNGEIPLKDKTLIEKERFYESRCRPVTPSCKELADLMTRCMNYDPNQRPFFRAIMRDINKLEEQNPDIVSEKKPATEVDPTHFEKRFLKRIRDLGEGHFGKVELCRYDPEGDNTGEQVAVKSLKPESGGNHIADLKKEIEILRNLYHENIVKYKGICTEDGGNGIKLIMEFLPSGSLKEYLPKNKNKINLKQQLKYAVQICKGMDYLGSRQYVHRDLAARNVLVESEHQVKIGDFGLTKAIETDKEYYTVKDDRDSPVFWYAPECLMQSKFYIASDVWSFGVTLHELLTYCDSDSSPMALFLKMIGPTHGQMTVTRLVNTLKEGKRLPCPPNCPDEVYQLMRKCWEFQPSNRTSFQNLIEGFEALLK

SMILES | Kd (MARK3) | Kd (JAK1) | Kd (PIP4K2B) | Kd (PTK2B) | Kd (ADCK1) | Kd (PIP4K2A) | Kd (MAPK9) | Kd (PRKACB) | Kd (CSK)
CN(C)CC(O)COc1ccc(Nc2ncc([N+](=O)[O-])c(Nc3ccccc3O)n2)cc1.O=C(O)C(F)(F)F (stereo not drawn) [TCMDC-141399] | 5.55 µM and 3.66 µM | 0.272 µM and 0.346 µM | 0.684 µM and 0.987 µM | 0.128 µM and 0.175 µM | 1.18 µM | 0.846 µM and 0.669 µM | – | – | –
Cl.NCC1(c2nc(-c3ccc(Cl)c(O)c3)c(-c3ccncc3)[nH]2)CCCCC1 [TCMDC-141154] | – | – | – | – | – | – | 0.355 µM | 0.811 µM | 2.65 µM
CN1CCN(c2ccc(Nc3ncc(C#N)c(Nc4ccccc4C(N)=O)n3)cc2)CC1.Cl [TCMDC-134116] | 0.0666 µM and 0.0777 µM | 0.0131 µM and 0.0195 µM | 1.13 µM and 0.705 µM | 0.0281 µM and 0.0353 µM | 0.654 µM | 0.775 µM and 0.987 µM | 0.23 µM and 0.209 µM | 5.74 µM | 2.47 µM
